Reference: PMC7321108, “1-Hydroxyanthraquinones Containing Aryl Substituents as Potent and Selective Anticancer Agents” (Molecules, 2020)
Like-named read-outs stand apart in the source and are kept apart here.

Tests used:
[1] = tested on: SNB-19 glioblastoma cells; assay: MTT cytotoxicity assay, SNB-19; type: cell-based; conditions: Homo sapiens, 72 h incubation, mean ± SEM of three experiments, read-out: Cytotoxicity (GI50) against SNB-19
Protocol: (§1) The cytotoxicity of the synthesized series of 4-substituted 5, 13–17, 22, 23, 2-substituted 25–30 and 2,4-disubstituted 1-hydroxy-9,10-anthraquinones 33–38, 40–45 was evaluated against a panel of seven different human cancer cell lines (glioblastoma cancer cells, human prostate cancer cells, T-cellular human leucosis, breast cancer cells) and also a normal cell line of hTERT-immortalized lung fibroblasts, using conventional MTT assay. Doxorubicin (DOX) is clinically used to treat cancer as drug in world and have a very wide antitumor spectrum. That we use them as positive control compounds. The cytotoxicity was determined by measuring the concentration inhibiting human tumor cell viability by 50% (GI50).
(§2) The human cancer cells of the glioblastoma (U-87MG, SNB-19, T98G), prostate cancer cell line (LNCAP, DU-145), the cells of T-cellular human leucosis (MT-4) and human breast cancer cells (MDA-MB-231) were used in this study. The cells were cultured in the RPMI-1640 medium that contained 10% embryonic calf serum, L-glutamine (2 mmol/L), gentamicin ([…]) and lincomycin (30 mkg/mL) in a CO2 incubator at 37 °C. The tested compounds were dissolved in DMSO and added to the cellular culture at the required concentrations. Three wells were used for each concentration. The cells which were incubated without the compounds were used as a control. Cells were placed on 96-well microliter plates and cultivated at 37 °C in 5% CO2/95% air for 72 h. The cell viability was assessed through an MTT [3-(4,5-dimethylthiazol-2-yl)-[…]-2H-tetrazolium bromide] conversion assay. A total of 1% MTT was added to each well. Four hours later, DMSO was added and mixed for 15 min. Optical density (D) of the samples was measured on a BioRad 680 multi-well spectrophotometer (USA) at the wavelength of 450 nm. The 50% cytotoxic dose GI50) of each compound (i.e., the compound concentration that causes the death of 50% of cells in a culture, or decreases the optical density twice as compared to the control wells) was calculated from the data obtained. Statistical processing of the results was performed using the Microsoft Excel-2007, […] 6.0 and GraphPad Prism 5.0 programs. The results are given as an average value ± a deviation from the average (mean ± standard error of the mean (SEM)). Reliability of differences (p) was estimated using the Student t test. The differences with p < 0.05 were considered as reliable. The experimental results are given as the data average values obtained from three independently conducted experiments.

[2] = tested on: U-87MG glioblastoma cells; assay: MTT cytotoxicity assay, U-87MG; type: cell-based; conditions: Homo sapiens, 72 h incubation, mean ± SEM of three experiments, read-out: Cytotoxicity (GI50) against U-87MG
Protocol: as §1, §2

T98G glioblastoma cells = assay: MTT cytotoxicity assay, T98G; type: cell-based; conditions: Homo sapiens, 72 h incubation, mean ± SEM of three experiments, read-out: Cytotoxicity (GI50) against T98G
Protocol: as §1, §2

[3] = tested on: LNCAP prostate cancer cells; assay: MTT cytotoxicity assay, LNCAP; type: cell-based, human; conditions: Homo sapiens, LNCaP, 72 h, 72 h incubation, mean ± SEM of three experiments, read-out: Cytotoxicity (GI50) against LNCAP
Protocol: as §1, §2

[4] = tested on: DU-145 prostate cancer cells; assay: MTT cytotoxicity assay, DU-145; type: cell-based, human; conditions: 72 h incubation, mean ± SEM of three experiments, read-out: Cytotoxicity (GI50) against DU-145
Protocol: as §1, §2

[5] = tested on: MT-4 cells of T-cellular human leucosis; assay: MTT cytotoxicity assay, MT-4; type: cell-based; conditions: MT4, 72 h incubation, mean ± SEM of three experiments, read-out: Cytotoxicity (GI50) against MT-4
Protocol: as §1, §2

[6] = tested on: MDA-MB-231 breast cancer cells; assay: MTT cytotoxicity assay, MDA-MB-231; type: cell-based; conditions: Homo sapiens, 72 h incubation, mean ± SEM of three experiments, read-out: Cytotoxicity (GI50) against MDA-MB-231
Protocol: as §1, §2

[7] = MTT cytotoxicity assay, normal hTERT-immortalized lung fibroblasts; type: cell-based; conditions: human, hTERT-immortalized lung fibroblasts (normal cell line), 72 h incubation, mean ± SEM of three experiments, read-out: Cytotoxicity (GI50) against hTERT Lung Fibroblasts
Protocol: as §1, §2

DU-145 cells [8] = assay: Cell cycle analysis by flow cytometry (Hoechst 33342), DU-145; type: cell-based, human; conditions: DU-145, treated at GI50 concentration, 24 h
Protocol: We have carried out flow cytometric study of compounds 13, 16 and the isomeric compound 25 (Table 4, Figure 4G,H). Concentrations of 16 and 25 were taken as 5.4 and 14.5 μM, respectively, as per cytotoxic studies (Table 1). After examining the data for 13 (Figure 4G, Table 4), a good number of cells are arrested in Sub-G1, G0/G1 and S phase. Biosynthetic activity is very high during Sub-G1 phase; this is probably achieved by enhancing of apoptosis. The isomeric molecule 25 arrest G0/G1 and S phases, i.e., affecting the DNA synthesis/replication mechanism. Similarly, for 25 a different pattern is observed, i.e., variations at S and G2/M phases were observed, in comparison to the control. […] Some difference in the mechanism of operation of 13 and 25 has been observed during the progression of cell cycle like: Sub-G1 phase was highly disturbed by 13 and S and G0/G1 phases were highly disturbed by 25.
(§3) For cell cycle analysis cells were seeded in 6-well plates (30,000 per plate) and incubate for adhesion for 24 h. […] Cells were washed with PBS twice, harvested, pelleted and resuspended in 0.5 mL of PBS. For staining the Hoechst 33342 Ready Flow Reagent (Invitrogen) was used according to the instruction. CytoFLEX flow cytometer (Beckman Coulter) was used for analysis. The results are presented as a percentage of cell population standing in different stages of the cell cycle.

DU-145 cells [9] = assay: DNA synthesis investigation (BrdU/PI flow cytometry), DU-145; type: cell-based, human; conditions: DU-145, treated at GI50 concentration, 24 h, BrdU 30 min
Protocol: (§4) Cell cycle analysis was performed by Flow Cytometry using BrdU and PI staining [63]. For this experiment cells were seeded in 6-well plates (30,000 per plate) and incubate for adhesion for 24 h. […] For the next step the BrdU stock was added at a final concentration of 30 µM and cells were incubated for 30 min. Cells were washed with PBS, harvested using trypsine and resuspended at 0.3 mL of PBS. Permeabilization of cell membrane was performed as follows: 0.7 mL of ice-cold 100% EtOH was added into each sample, mixed gently and incubate at 4 °C for 1 h. Cells were pelleted and supernatant was removed completely. Then 0.5 mL of 2 N HCl/0.5% Triton X-100 was added and samples were incubated 30 min at room temperature. Cells were pelleted again, supernatant was removed. The pellet was resuspended in 0.5 mL of 0.1 M sodium tetraborate for 2 min and cells were pelleted again, washed with 150 µL of PBS/1% BSA and resuspended in 50 µM 0.5% Tween 20/1% BSA/PBS. […] After that the samples were resuspended in 0.5 mL of PBS containing 10 mg/mL RNAse A and 20 mg/mL PI. Samples were incubated at room temperature for 30 min and analyzed immediately or store at 4 °C. CytoFLEX flow cytometer (Beckman Coulter) was used for analysis. The results are presented as a percentage of cell population standing in DNA synthesis process.

SNB-19 cells [10] = assay: Cell cycle analysis by flow cytometry (Hoechst 33342), SNB-19; type: cell-based, human; conditions: SNB-19, treated at GI50 concentration, 24 h
Protocol: Due to the fact that the implementation of the antitumor potential of the currently existing antitumor agents is carried out by acting on various biological targets, at the next stage we performed the cell cycle analysis and DNA synthesis. Cell cycle analysis of 1-hydroxy-4-phenyl-9,10-anthraquinone 13, 1-hydroxy-4-(2,3-dimethoxyphenyl)-9,10- anthraquinone 16, 1-hydroxy-4-(furan-3-yl)-9,10-anthraquinone 23 and 1-hydroxy- 2-(2,3-dimethoxyphenyl)-9,10-anthraquinone 28 against SNB-19 cells for 24 h produced interesting results. After examining the data for compounds 13 and 16 (Table 3, Figure 4C,D), good number of cells are distributed in S phase, i.e., initiated DNA replication mechanism and also in G0/G1 phase, i.e., initial phase of cell cycle. G1 and G2 are the growth phases in cell cycle analysis, whereas S phase is a synthetic phase wherein DNA replication and DNA synthesis take place. The 2-aryl substituted compound 28 initiated the G0/G1 phase in analogy with doxorubicin and mitomycin. […] Further, compounds play a vital role in controlling the regulation of Sub-G1 and G2/M phases. Some difference in the mechanism of operation of 4-aryl substituted 13,16 and 2-aryl substituted 9,10-anthraquinones 28 has been observed during the progression of cell cycle like: S phase was highly disturbed by 13; G0/G1 phase was highly disturbed by 28. […] This observation can be explained by the influence on the cell repair systems that respond to the intercalation of compounds in DNA. […] Further, mitoxantrone promotes the arrest of S phase of cell cycle.
as §3

SNB-19 cells [11] = assay: DNA synthesis investigation (BrdU/PI flow cytometry), SNB-19; type: cell-based, human; conditions: SNB-19, treated at GI50 concentration, 24 h, BrdU 30 min
Protocol: as §4

| SMILES | GI50 [1] [µM] | GI50 [2] [µM] | GI50 (T98G glioblastoma cells) [µM] | GI50 [3] [µM] | GI50 [5] [µM] | GI50 [6] [µM] | GI50 at 72 h [7] [µM] | Population (% Cell Distribution) G0/G1 (DU-145 cells [8]) [%] | Population (% Cell Distribution) G2/M (DU-145 cells [8]) [%] | Population (% Cell Distribution) S (DU-145 cells [8]) [%] | Population (% Cell Distribution) Sub-G1 (DU-145 cells [8]) [%] | Population (% Cell Distribution) Super-G2 (DU-145 cells [8]) [%] | Population (% Cell Distribution) DNA Synthesis (DU-145 cells [9]) [%] | Population (% Cell Distribution) G0/G1 (SNB-19 cells [10]) [%] | Population (% Cell Distribution) G2/M (SNB-19 cells [10]) [%] | Population (% Cell Distribution) S (SNB-19 cells [10]) [%] | Population (% Cell Distribution) Sub-G1 (SNB-19 cells [10]) [%] | Population (% Cell Distribution) Super-G2 (SNB-19 cells [10]) [%] | Population (% Cell Distribution) DNA Synthesis (SNB-19 cells [11]) [%] | further results |
| --- | --- | --- | --- | --- | --- | --- | --- | --- | --- | --- | --- | --- | --- | --- | --- | --- | --- | --- | --- | --- |
| O=C1c2ccccc2C(=O)c2c1ccc(-c1ccccc1)c2O [Compound 25, 1-Hydroxy-2-phenylanthracene-9,10-dione] | 6.8 ± 1.19 | > 100 | 21.5 ± 0.92 | 32.1 ± 8.55 | > 100 | 16.5 ± 0.88 | 44.6 ± 2.46 | 32.3 | 7.4 | 32.4 | 25.9 | 2.0 | 20.27 | – | – | – | – | – | – | GI50 ([4]; Homo sapiens, DU-145, 72 h): 14.5 ± 0.73 µM; melting point: 174.1 °C (dec.) |
| COc1cccc2c1C(=O)c1c(O)c3c(c(O)c1C2=O)C[C@@](O)(C(=O)CO)C[C@@H]3O[C@H]1C[C@H](N)[C@H](O)[C@H](C)O1 [DOX, Doxorubicin, reference compound] | 7.62 ± 0.69 | 6.11 ± 0.15 | 4.5 ± 0.46 | 2.11 ± 0.4 | 0.2 ± 0.04 | 7.9 ± 0.51 | 2.2 ± 0.58 | 48.8 | 15.9 | 28.1 | 0.3 | 6.8 | 10.76 | 49.6 | 19.6 | 23.2 | 1.9 | 5.7 | 11.81 | GI50 [4]: 6.61 ± 0.34 µM |
| CO[C@@]12[C@H](COC(N)=O)C3=C(C(=O)C(C)=C(N)C3=O)N1C[C@@H]1N[C@@H]12 [Mitomycin C, reference compound] | – | – | – | – | – | – | – | 50.3 | 16.3 | 13.2 | 0.1 | 20.2 | 5.74 | 63.6 | 4.1 | 25.2 | 0.0 | 7.0 | 7.44 | – |
